In patent publication US6093731A, “Isoquinolines” (priority 1999, dated 2000):
Structures can show the parent of a compound that is named as a salt.

molecular target: T1, human urokinase (Homo sapiens, UniProt P00749); test: urokinase inhibition assay (S-2444 substrate); format: biochemical; conditions: not given
T1 construct: the urokinase used was HMWT Human Urokinase (Calbiochem 672081); purchased Calbiochem 672081

Row | SMILES | Ki [nM]
1 | NC(N)=Nc1ncc(Cl)c2ccc(S(=O)(=O)NC3(C(=O)O)CCCCC3)cc12 [43(b), 1-{[(4-Chloro-1-guanidino-7-isoquinolinyl)sulphonyl]amino}cyclohexanecarboxylic acid hydrochloride] | ≤ 20
2 | NC(N)=Nc1ncc(Cl)c2ccc(S(=O)(=O)N3CCC[C@@H]3C(=O)O)cc12 [Example 32(b), N-[(4-Chloro-1-guanidino-7-isoquinolinyl)sulphonyl]-D-proline hydrochloride] | ≤ 20
3 | CN1CCN(C(=O)C2(NS(=O)(=O)c3ccc4c(Cl)cnc(N=C(N)N)c4c3)CCCC2)CC1 [Example 79, 4-Chloro-1-guanidino-N-{1-[(4-methylpiperazino)carbonyl]cyclopentyl}-7-isoquinolinesulphonamide dihydrochloride] | ≤ 20
4 | NC(N)=Nc1ncc(Cl)c2ccc(S(=O)(=O)NC3(C(=O)N4CCOCC4)CCCC3)cc12 [Example 78, 4-Chloro-1-guanidino-N-[1-(morpholinocarbonyl)cyclopentyl]-7-isoquinolinesulphonamide hydrochloride] | ≤ 20

same assay, conditions: read-out: Ki values vs. urokinase

Row | SMILES | Ki [nM]
5 | CN(CCO)C(=O)C1(NS(=O)(=O)c2ccc3c(Cl)cnc(NC(=N)N)c3c2)CCCC1 [Example 75, 1-[({4-Chloro-1-guanidino-7-isoquinolinyl}sulphonyl)amino]-N-(2-hydroxyethyl)-N-methylcyclopentanecarboxamide hydrochloride] | ≤ 20
6 | NC(N)=Nc1ncc(Cl)c2ccc(S(=O)(=O)N3CCOC(=O)C34CCCC4)cc12 [Example 87(c), N"-{4-Chloro-7-[(10-oxo-9-oxa-6-azaspiro [4.5]dec-6-yl)sulphonyl]-1-isoquinolinyl}guanidine hydrochloride] | ≤ 20
7 | CN(C)CCN(C1(C(=O)O)CCCC1)S(=O)(=O)c1ccc2c(Br)cnc(NC(=N)N)c2c1 [84(b), N-({4-Bromo-1-guanidino-7-isoquinolinyl}sulphonyl)-N-[2-(dimethylamino)ethyl]cycloleucine dihydrochloride] | ≤ 20
8 | N=C(N)Nc1ncc(Cl)c2ccc(S(=O)(=O)N(CCOC3CCCCO3)C3(C(=O)O)CCCC3)cc12 (stereo not drawn) [Example 87(b), 1-{[(4-Chloro-1-guanidino-7-isoquinolinyl)sulphonyl][2-(tetrahydro-2H-pyran-2-yloxy)ethyl]amino}cyclopentanecarboxylic acid] | ≤ 20
9 | CN(C)CCNC(=O)C1(NS(=O)(=O)c2ccc3c(Cl)cnc(N=C(N)N)c3c2)CCCC1 [Example 39(a), 1-{[(4-Chloro-1-guanidino-7-isoquinolinyl)sulphonyl]amino}-N-[2-(dimethylamino)ethyl]cyclopentanecarboxamine] | ≤ 20
10 | NC(N)=Nc1ncc(Cl)c2ccc(S(=O)(=O)NC3(C(=O)O)CCCC3)cc12 [37(b), N-[(4-Chloro-1-guanidino-7-isoquinolinyl)sulphonyl]cycloleucine] | ≤ 20
11 | NC(N)=Nc1ncc(Cl)c2ccc(S(=O)(=O)NC3(C(=O)NCCO)CCCC3)cc12 [Example 38, 1-{[(4-Chloro-1-guanidino-7-isoquinolinyl)sulphonyl]amino}-N-(2-hydroxyethyl)cyclopentanecarboxamine hydrochloride] | ≤ 20
12 | COCCNC(=O)C1(NS(=O)(=O)c2ccc3c(Cl)cnc(NC(=N)N)c3c2)CCCC1 [Example 76, 1-[({4-Chloro-1-guanidino-7-isoquinolinyl}sulphonyl)amino]-N-(2-methoxyethyl)cyclopentanecarboxamide hydrochloride] | ≤ 20
